Patent US12577536B2, “Method for isolating ureteric bud tip cells” (KYOTO UNIVERSITY, priority 2019, dated 2026)

Legend:
Type in all cases: cell-based, human
[1] = test system: dissociated tip colony cells; test: Collecting duct progenitor induction, 2D culture with immunostaining
Procedure: For 2D cultures, day 7 tip cell colonies detached from hydrogel were dissociated into single cells by pipetting after treatment with Accutase for 3 min at 37° C. The single cells were resuspended with Essential 6 medium containing 1 μM IWR-1 (Tocris) and 0.5 μL/cm^2 iMatrix-511 silk with or without 1 μM A83-01 and seeded at a density of 4×10^4 cells/well in 96-well plates. For 3D cultures, day 14 reconstituted iUB organoids were treated with Essential 6 medium containing 1 μM IWR-1 and 1 μM A83-01 for 14 days.
Immunostaining analysis was performed as described previously with some modifications (Mae, SI. & Ryosaka, M. et al. Biochem Biophys Res Commun. 495, 954-61 (2018)). For 2D cultures, the cells were fixed with 4% paraformaldehyde (PFA)/PBS for 20 min at 4° C. After washing with PBS twice, the cells were blocked with 18 normal donkey serum (MERCK) and 3% bovine serum albumin (BSA; Nacalai Tesque)/PBST (PBS/0.25% Triton X-100, Nacalai Tesque) for 1 h at room temperature. Primary antibodies were diluted with blocking solution at 1:500 and incubated with the samples overnight at 4° C. After washing with PBST twice, secondary antibodies diluted with blocking solution at 1:500 were incubated for 1 h at room temperature.

tip cell colonies = test: Reconstitution of iUB organoids from tip cell colonies; conditions: organoid medium with CHIR99021
Procedure: Hydrogel was dissolved with Cell Recovery Solution (BD Biosciences) for 1 h at 4° C. to detach day 7 tip cell colonies. After washing with additional Cell Recovery Solution, the tip cell colonies were centrifuged at 500 g for 5 min at room temperature. Essential 6 medium containing 0.1 μM LDN193189, 100 ng/ml GDNF, 0.1 μM TTNPB, 200 ng/ml FGF8, 1 μM CHIR99021 or 10% Afamin/Wnt3a conditioned medium (MBL), 200 ng/ml R-spondin 1 (R&D systems), 50 ng/ml EGF, 200 ng/ml FGF1 and 10% Matrigel was applied to the tube including tip cell colonies. After pipetting gently with a wide-mouth micropipette (BMBio) not to break colonies, the suspension was distributed to low-attachment 35 mm dish (Sumitomo Bakelite) at 2 mL/dish. The medium was refreshed every 2 days. On day 4, each colony was placed onto one well of low-attachment 96-well plates in the same medium. After an additional 6 days, the tip region was separated from the reconstituted iUB organoid and treated with the same medium for 35 days.

[2] = test system: ND aggregates / iUB organoids; test: iUB organoid induction from ND aggregates; conditions: 50 ng/ml EGF and 200 ng/ml FGF1 added together to organoid medium
Procedure: Unwanted cells were removed from the ND aggregates by pipetting (Mae, SI. & Ryosaka, M. et al. Biochem Biophys Res Commun. 495, 954-61 (2018)). The ND aggregates were treated with the same medium and factors containing 2% Matrigel for 6 days to constitute iUB organoids with epithelial polarity and tubular lumens. 50 ng/ml EGF (R&D Systems) and 200 ng/ml FGF1 (R&D Systems) were added to enhance budding. The tips were mechanically separated from iUB organoids and cultured in the same medium and factors containing 2% Matrigel for 6 to 14 days to reconstitute branching iUB organoids. The tips separated from the reconstituted iUB organoids were treated with the same medium and factors to repeatedly reconstitute iUB organoids.

Molecule: Cc1cccc(-c2nn(C(=S)Nc3ccccc3)cc2-c2ccnc3ccccc23)n1 [A83-01, 3-(6-Methyl-2-pyridinyl)-N-phenyl-4-(4-quinolinyl)-1H-pyrazole-1-carbothioamide]
- induction rates of AQP2-expressing cells ([1]; 1 μM A83-01 in combination with 1 μM IWR-1, day 7 of 2D culture): improved the induction rates of these cells

Molecule: Cc1c[nH]c(-c2cnc(NCCNc3ccc(C#N)cn3)nc2-c2ccc(Cl)cc2Cl)n1 [CHIR99021, 6-[2-[4-(2,4-Dichlorophenyl)-5-(4-methyl-1H-imidazole-2-yl)pyrimidine-2-ylamino]ethylamino]pyridine-3-carbonitrile]
- reconstitution of iUB organoids from tip cell colonies (tip cell colonies): only observed with tip cell colonies derived from 585A1 iPS cells

Molecule: O=C(Nc1cccc2cccnc12)c1ccc(N2C(=O)[C@@H]3[C@H](C2=O)[C@@H]2C=C[C@H]3C2)cc1 [IWR-1]
- differentiation into AQP2-expressing, CAII-negative cells ([1]; 1 μM IWR-1, day 7 of 2D culture): facilitated the differentiation of dissociated tip colony cells into the cells expressing a collecting duct principal cell marker, Aquaporin (AQP) 2

Molecule: EGF: protein called Epidermal Growth Factor (R&D systems) (NSDSECPLSHDGYCLHDGVCMYIEALDKYACNCVVGYIGERCQYRDLKWWELR; Epidermal growth factor; UniProt P01133 971-1023, looked up)
- budding of iUB organoids [2]: promoted budding

Molecule: FGF1: fibroblast growth factor
- budding of iUB organoids [2]: promoted budding
